Active and inactive are the calls of the source. The calls are words filed in the database; no cut-off is given here.
Key:
[1] = Inhibition of quorum sensing system in Pseudomonas aeruginosa PAO1-lasB-gfp assessed as inhibition of lasB expression at 50 ug/ml incubated for 8 hrs under shaking condition by microplate reader based analysis relative to control; conditions: dose 50.0 µg/ml
[2] = Inhibition of quorum sensing system in Pseudomonas aeruginosa PAO1-rhlA-gfp assessed as inhibition of rhlA expression at 50 ug/ml incubated for 8 hrs under shaking condition by microplate reader based analysis relative to control; conditions: dose 50.0 µg/ml
[3] = Inhibition of quorum sensing system in Pseudomonas aeruginosa PAO1-pqsA-gfp assessed as inhibition of pqsA expression at 50 ug/ml incubated for 8 hrs under shaking condition by microplate reader based analysis relative to control; conditions: dose 50.0 µg/ml
[4] = system: Pseudomonas aeruginosa; assay: Antibacterial activity against Pseudomonas aeruginosa PAO1 at 80 to 160 ug/ml incubated for 48 hrs by absorbance based analysis; assay type: functional, organism-based; conditions: dose 80-160 µg/ml
[5] = system: Pseudomonas aeruginosa; assay: Anti-virulence activity in Pseudomonas aeruginosa PAO1 assessed as reduction in elastase production at 160 ug/ml by congo red dye based microplate reader analysis; assay type: functional, organism-based; conditions: dose 160.0 µg/ml
[6] = system: Pseudomonas aeruginosa; assay: Anti-virulence activity in Pseudomonas aeruginosa PAO1 assessed as reduction in rhamnolipid production at 160 ug/ml incubated for 48 hrs by absorbance based analysis; assay type: functional, organism-based; conditions: dose 160.0 µg/ml
[7] = system: Pseudomonas aeruginosa; assay: Anti-virulence activity in Pseudomonas aeruginosa PAO1 assessed as reduction in pyocyanin production at 160 ug/ml by absorbance based analysis; assay type: functional, organism-based; conditions: dose 160.0 µg/ml
[8] = system: Pseudomonas aeruginosa; assay: Anti-virulence activity in Pseudomonas aeruginosa PAO1 assessed as reduction in pyoverdine production at 160 ug/ml by absorbance based analysis; assay type: functional, organism-based; conditions: dose 160.0 µg/ml
[9] = system: Pseudomonas aeruginosa; assay: Antibiofilm activity against Pseudomonas aeruginosa PAO1 assessed as reduction in biofilm production at 160 ug/ml incubated for 72 hrs by crystal violet staining based analysis; assay type: functional, organism-based; conditions: dose 160.0 µg/ml
[10] = system: Pseudomonas aeruginosa; assay: Anti-motility activity against Pseudomonas aeruginosa PAO1 assessed as reduction in swarming at 160 ug/ml incubated for 12 hrs; assay type: functional, organism-based; conditions: dose 160.0 µg/ml
[11] = Cytotoxicity against human HepG2 cells assessed as inhibition of cell growth at 100 ug/ml measured after 48 hrs by CCK-8 method relative to control; assay type: toxicity, cell-based; conditions: at 100 µg/mL
[12] = Cytotoxicity against human HepG2 cells assessed as inhibition of cell growth at 10 ug/ml measured after 48 hrs by CCK-8 method relative to control; assay type: toxicity, cell-based; conditions: at 10 µg/mL
[13] = system: Pseudomonas aeruginosa; assay: Antibacterial activity against Pseudomonas aeruginosa infected in Galleria mellonella larvae infection model assessed as increase in survival rate at 160 ug/ml preincubated with measured after 72 hrs; assay type: functional, organism-based; conditions: dose 160.0 µg/ml
[14] = system: Pseudomonas aeruginosa; assay: Downregulation of lasR mRNA expression in Pseudomonas aeruginosa PAO1 at 160 ug/ml incubated for 6 hrs by RT-qPCR analysis; assay type: functional; conditions: dose 160.0 µg/ml
[15] = system: Pseudomonas aeruginosa; assay: Downregulation of lasA mRNA expression in Pseudomonas aeruginosa PAO1 at 160 ug/ml incubated for 6 hrs by RT-qPCR analysis; assay type: functional; conditions: dose 160.0 µg/ml
[16] = system: Pseudomonas aeruginosa; assay: Downregulation of lasB mRNA expression in Pseudomonas aeruginosa PAO1 at 160 ug/ml incubated for 6 hrs by RT-qPCR analysis; assay type: functional; conditions: dose 160.0 µg/ml
[17] = system: Pseudomonas aeruginosa; assay: Downregulation of lasl-mRNA expression in Pseudomonas aeruginosa PAO1 at 160 ug/ml incubated for 6 hrs by RT-qPCR analysis; assay type: functional; conditions: dose 160.0 µg/ml
[18] = system: Pseudomonas aeruginosa; assay: Downregulation of pqsA mRNA expression in Pseudomonas aeruginosa PAO1 at 160 ug/ml incubated for 6 hrs by RT-qPCR analysis; assay type: functional; conditions: dose 160.0 µg/ml
[19] = system: Pseudomonas aeruginosa; assay: Downregulation of pqsR mRNA expression in Pseudomonas aeruginosa PAO1 at 160 ug/ml incubated for 6 hrs by RT-qPCR analysis; assay type: functional; conditions: dose 160.0 µg/ml
[20] = system: Pseudomonas aeruginosa; assay: Downregulation of rhll-mRNA expression in Pseudomonas aeruginosa PAO1 at 160 ug/ml incubated for 6 hrs by RT-qPCR analysis; assay type: functional; conditions: dose 160.0 µg/ml
[21] = system: Pseudomonas aeruginosa; assay: Downregulation of rhlR mRNA expression in Pseudomonas aeruginosa PAO1 at 160 ug/ml incubated for 6 hrs by RT-qPCR analysis; assay type: functional; conditions: dose 160.0 µg/ml
[22] = system: Pseudomonas aeruginosa; assay: Downregulation of phzM mRNA expression in Pseudomonas aeruginosa PAO1 at 160 ug/ml incubated for 6 hrs by RT-qPCR analysis; assay type: functional; conditions: dose 160.0 µg/ml
[23] = system: Pseudomonas aeruginosa; assay: Downregulation of chiC mRNA expression in Pseudomonas aeruginosa PAO1 at 160 ug/ml incubated for 6 hrs by RT-qPCR analysis; assay type: functional; conditions: dose 160.0 µg/ml
[24] = biological target: T1, Transcriptional activator protein LasR (Pseudomonas aeruginosa (strain ATCC 15692 / PAO1 / 1C / PRS 101 / LMG12228), UniProt P25084); assay: Binding affinity to Pseudomonas aeruginosa PAO1 LasR assessed as dissociation constant by SPR analysis
T1 sequence (P25084 whole entry): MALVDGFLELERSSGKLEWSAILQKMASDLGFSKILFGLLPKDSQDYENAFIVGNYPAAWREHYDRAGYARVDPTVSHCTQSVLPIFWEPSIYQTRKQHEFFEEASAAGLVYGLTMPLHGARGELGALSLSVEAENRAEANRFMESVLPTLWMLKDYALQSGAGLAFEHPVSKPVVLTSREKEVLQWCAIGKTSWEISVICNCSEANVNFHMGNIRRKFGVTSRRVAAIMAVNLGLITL

[25] = biological target: T2, Transcriptional regulator MvfR (Pseudomonas aeruginosa PA14, UniProt A0A072ZLE6); assay: Binding affinity to Pseudomonas aeruginosa PAO1 PqsR expressed in Escherichia coli BL21 assessed as dissociation constant by SPR analysis
T2 sequence (A0A072ZLE6 whole entry): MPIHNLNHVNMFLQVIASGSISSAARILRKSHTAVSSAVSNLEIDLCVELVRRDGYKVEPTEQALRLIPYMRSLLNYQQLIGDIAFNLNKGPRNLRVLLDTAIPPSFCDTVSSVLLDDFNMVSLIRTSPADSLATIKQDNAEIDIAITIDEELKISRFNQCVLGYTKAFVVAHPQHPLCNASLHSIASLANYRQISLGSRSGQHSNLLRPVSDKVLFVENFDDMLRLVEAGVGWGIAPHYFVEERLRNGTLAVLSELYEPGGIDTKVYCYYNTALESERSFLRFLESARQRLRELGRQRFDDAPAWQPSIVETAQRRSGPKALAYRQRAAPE

[26] = system: Pseudomonas aeruginosa; assay: Antibacterial activity against Pseudomonas aeruginosa PAO1 at 80 ug/ml incubated for 48 hrs by absorbance based analysis; assay type: functional, organism-based; conditions: dose 80.0 µg/ml

Structure (SMILES): C=C(C)CNC(C)=O
- inhibition [1]: 10.5%
- inhibition [2]: 10.2%
- inhibition [3]: 59.1%

Structure (SMILES): C=C(C)CNC(=O)/C=C/CCC
- inhibition [1]: 77.1%
- inhibition [2]: 85%
- inhibition [3]: 40%
- Activity [4]: inactive
- Activity [5]: Active
- Activity [6]: Active
- Activity [7]: Active
- Activity [8]: Active
- Activity [9]: Active
- Activity [10]: Active
- inhibition at 48 h, 100 ug/ml [11]: 18.9%
- inhibition at 48 h, 10 ug/ml [12]: 9.91%
- Activity [13]: Active
- Activity [14]: inactive
- Activity [15]: Active
- Activity [16]: Active
- Activity [17]: Active
- Activity [18]: Active
- Activity [19]: inactive
- Activity [20]: Active
- Activity [21]: Active
- Activity [22]: Active
- Activity [23]: Active

Structure (SMILES): CC(=O)NCC(C)(C)O
- inhibition [1]: 1.11%
- inhibition [2]: 13.8%

Structure (SMILES): CCC/C=C/C(=O)NCC(C)C
- inhibition [1]: 64.1%
- inhibition [2]: 80.5%
- inhibition [3]: 26.5%
- Activity [23]: Active

Structure (SMILES): C=CC(=O)NCC(C)C
- inhibition [1]: 55.1%
- inhibition [2]: 68.6%
- inhibition [3]: 12.6%

Structure (SMILES): CC/C=C/C(=O)NCC(C)C
- inhibition [1]: 71.5%
- inhibition [2]: 72.7%
- inhibition [3]: 26.2%

Structure (SMILES): C/C=C/C=C/C(=O)NCC(C)(C)O
- inhibition [1]: 26.3%
- inhibition [2]: 32.4%

Structure (SMILES): CCCCCCC(=O)NCC(C)C
- inhibition [1]: 2.28%
- inhibition [2]: 8.21%
- inhibition [3]: 5.99%

Structure (SMILES): C=C(C)CNC(=O)CCCCC
- inhibition [1]: 72.7%
- inhibition [2]: 79.7%
- inhibition [3]: 36.1%

Structure (SMILES): CCCCC(=O)NCC(C)C
- inhibition [1]: 77.2%
- inhibition [2]: 65.8%
- inhibition [3]: 30.2%

Structure (SMILES): CCC(=O)NCC(C)C
- inhibition [1]: 54.6%
- inhibition [2]: 71%
- inhibition [3]: 27.8%

Structure (SMILES): CCCCCCC(=O)NCC(C)(C)O
- inhibition [1]: 13.1%
- inhibition [2]: 18.1%

Structure (SMILES): CC(=O)NCC(C)C
- inhibition [1]: 13.8%
- inhibition [2]: 18.9%
- inhibition [3]: 11%

Structure (SMILES): CCCCCC(=O)NCC(C)(C)O
- inhibition [1]: 32.4%
- inhibition [2]: 54.9%

Structure (SMILES): CCC/C=C/C(=O)NCC(C)(C)O
- inhibition [1]: 34.5%
- inhibition [2]: 50.1%

Structure (SMILES): CCCCCC(=O)NCC(C)C
- inhibition [1]: 70%
- inhibition [2]: 72.4%
- inhibition [3]: 13.6%

Structure (SMILES): C=CC(=O)NCC(C)(C)O
- inhibition [1]: 6.82%
- inhibition [2]: 29.7%
- inhibition [3]: 0.28%

Structure (SMILES): CCCC(=O)NCC(C)(C)O
- inhibition [1]: 37.4%
- inhibition [2]: 43.1%
- inhibition [3]: -6.15%

Structure (SMILES): C/C=C/C(=O)NCC(C)C
- inhibition [1]: 63.7%
- inhibition [2]: 72.3%
- inhibition [3]: 27.8%

Structure (SMILES): CCCCC(=O)NCC(C)(C)O
- inhibition [1]: 40%
- inhibition [2]: 55.8%
- inhibition [3]: 1.47%

Structure (SMILES): C=C(C)CNC(=O)/C=C/C=C/C
- inhibition [1]: 38.9%
- inhibition [2]: 56.8%
- inhibition [3]: 11.8%

Structure (SMILES): C=C(C)CNC(=O)/C=C/C
- inhibition [1]: 67.5%
- inhibition [2]: 80%
- inhibition [3]: 38%

Structure (SMILES): CCCC(=O)NCC(C)C
- inhibition [1]: 65.7%
- inhibition [2]: 65.4%
- inhibition [3]: 29.8%

Structure (SMILES): C=C(C)CNC(=O)CCC
- inhibition [1]: 61.5%
- inhibition [2]: 64.5%
- inhibition [3]: 38.1%

Structure (SMILES): C=C(C)CNC(=O)CCCC
- inhibition [1]: 72.2%
- inhibition [2]: 76.9%
- inhibition [3]: 26%

Structure (SMILES): C=CC(=O)NCC(=C)C
- inhibition [1]: 54.7%
- inhibition [2]: 63.9%
- inhibition [3]: 2.45%

Structure (SMILES): CC/C=C/C(=O)NCC(C)(C)O
- inhibition [1]: 53.1%
- inhibition [2]: 58.1%
- inhibition [3]: -8.67%

Structure (SMILES): C/C=C/C=C/C(=O)NCC(C)C
- inhibition [1]: 82.2%
- inhibition [2]: 84.1%
- inhibition [3]: 65.5%
- Activity [4]: inactive
- Activity [5]: Active
- Activity [6]: Active
- Activity [7]: Active
- Activity [8]: Active
- Activity [9]: Active
- Activity [10]: Active
- inhibition at 48 h, 100 ug/ml [11]: 30.1%
- inhibition at 48 h, 10 ug/ml [12]: -2.16%
- Activity [13]: Active
- Activity [14]: inactive
- Activity [15]: Active
- Activity [16]: Active
- Activity [17]: Active
- Activity [18]: Active
- Activity [19]: inactive
- Activity [20]: Active
- Activity [21]: Active
- Activity [22]: Active
- Kd [24]: 1230 µM
- Kd [25]: 8.36 µM

Structure (SMILES): C/C=C/C(=O)NCC(C)(C)O
- inhibition [1]: 29.9%
- inhibition [2]: 41.9%

Structure (SMILES): CCC(=O)NCC(C)(C)O
- inhibition [1]: 7.26%
- inhibition [2]: 28.3%

Structure (SMILES): C=CCSSCC=C [DIALLYLDISULFIDE]
- inhibition [1]: 36.1%
- inhibition [2]: 38%
- inhibition [3]: 34.6%
- Activity [26]: inactive
- inhibition at 48 h, 100 ug/ml [11]: 18.1%

Structure (SMILES): C=C(C)CNC(=O)CCCCCC
- inhibition [1]: 61.6%
- inhibition [2]: 68.4%
- inhibition [3]: 42.5%
